Results reported in the NIST ThermoML archive (doi:10.1016/j.jct.2013.10.034).
± gives the expanded uncertainty stated by the source.

Assays:
[1] = Liquid; for viscosity / mass density: 100 kPa; for viscosity: Falling or rolling sphere viscometry; for mass density: Vibrating tube method; for vapor or sublimation pressure: Ebulliometric method (Recirculating still)
[2] = xn = mol fraction of the nth substance listed; conditions: 100 kPa, Liquid, x2 = 0; for viscosity: Falling or rolling sphere viscometry; for mass density: Vibrating tube method

CCCC[N+]1(C)CCCCC1.N#C[N-]C#N [1-butyl-1-methylpiperidinium dicyanamide]
[1]
Conditions	mass density [kg/m3]	viscosity [mPa·s]
298.15 K	1016.13 ± 0.5	123.3 ± 20
303.15 K	1012.98 ± 0.5	92.97 ± 15
308.15 K	1010.65 ± 0.49	75.58 ± 12
313.15 K	1007.92 ± 0.49	60.93 ± 9.8
318.15 K	1005.2 ± 0.49	49.79 ± 8
323.15 K	1002.47 ± 0.48	41.31 ± 6.6
328.15 K	999.77 ± 0.48	34.72 ± 5.6
333.15 K	997.08 ± 0.48	29.45 ± 4.7
338.15 K	994.39 ± 0.48	23.31 ± 3.7
343.15 K	991.72 ± 0.48	21.98 ± 3.5

CCCC[N+]1(C)CCCC1.N#CN=C=[N-] [1-butyl-1-methylpyrrolidinium dicyanamide]
[1]
Conditions	mass density [kg/m3]	viscosity [mPa·s]
298.15 K	1019.2 ± 1.4	34.74 ± 5.6
303.15 K	1016.38 ± 1.4	29.33 ± 4.7
308.15 K	1013.58 ± 1.3	25.09 ± 4
313.15 K	1010.79 ± 1.3	21.7 ± 3.5
318.15 K	1008 ± 1.3	18.95 ± 3
323.15 K	1005.23 ± 1.3	16.72 ± 2.7
328.15 K	1002.48 ± 1.3	14.84 ± 2.4
333.15 K	999.74 ± 1.3	13.28 ± 2.1
338.15 K	997 ± 1.3	11.96 ± 1.9
343.15 K	994.28 ± 1.3	10.82 ± 1.7

O [water]
[1]
Conditions	mass density [kg/m3]	vapor or sublimation pressure [kPa]	viscosity [mPa·s]
298.15 K	–	–	0.89 ± 0.14
303.15 K	–	–	0.808 ± 0.13
308.15 K	–	–	0.74 ± 0.12
313.15 K	992.15 ± 0.2	–	0.681 ± 0.11
318.15 K	990.14 ± 0.2	–	0.63 ± 0.1
323.15 K	987.93 ± 0.2	–	0.593 ± 0.095
328.15 K	985.61 ± 0.2	15.8 ± 0.5	0.56 ± 0.09
333.15 K	983.17 ± 0.2	–	0.528 ± 0.085
338.15 K	980.3 ± 0.2	25.1 ± 0.5	0.5 ± 0.08
343.15 K	978.1 ± 0.2	–	0.473 ± 0.076
348.15 K	–	38.6 ± 0.5	–
358.15 K	–	57.9 ± 0.5	–
368.15 K	–	84.4 ± 0.5	–

O [water] + CCCC[N+]1(C)CCCC1.N#CN=C=[N-]
[2]
Conditions	mass density [kg/m3]	viscosity [mPa·s]
298.15 K	–	0.89 ± 0.14
303.15 K	–	0.808 ± 0.13
308.15 K	–	0.74 ± 0.12
313.15 K	992.15 ± 0.2	0.681 ± 0.11
318.15 K	990.14 ± 0.2	0.63 ± 0.1
323.15 K	987.93 ± 0.2	0.593 ± 0.095
328.15 K	985.61 ± 0.2	0.56 ± 0.09
333.15 K	983.17 ± 0.2	0.528 ± 0.085
338.15 K	980.3 ± 0.2	0.5 ± 0.08
343.15 K	978.1 ± 0.2	0.473 ± 0.076

O [water] + CCCC[N+]1(C)CCCCC1.N#C[N-]C#N
[2]
Conditions	mass density [kg/m3]	viscosity [mPa·s]
298.15 K	–	0.89 ± 0.14
303.15 K	–	0.808 ± 0.13
308.15 K	–	0.74 ± 0.12
313.15 K	992.15 ± 0.2	0.681 ± 0.11
318.15 K	990.14 ± 0.2	0.63 ± 0.1
323.15 K	987.93 ± 0.2	0.593 ± 0.095
328.15 K	985.61 ± 0.2	0.56 ± 0.09
333.15 K	983.17 ± 0.2	0.528 ± 0.085
338.15 K	980.3 ± 0.2	0.5 ± 0.08
343.15 K	978.1 ± 0.2	0.473 ± 0.076
